This is an account of results in patent US12534510B2, “Peptide-receptive MHC-I complex compositions and methods” (priority 2020, dated 2026).

Data set [1] relates to B4.2.3 TCR transgenic T cell line. The data set is described as follows: Tetramer staining by flow cytometry. To be noted: stoichiometric (1:1) or catalytic (1:100) TAPBPR:MHC ratio. The class given is cell-based, murine. On the set-up: dose or concentration left out as unconfirmed. (Flow cytometry measures light scatter and fluorescence of single cells or particles in a stream.)

A further data set deals with H-2D^d/TAPBPR complex (Mus musculus, UniProt P01900).
For a further data set, the target named is H-2D^d (Mus musculus, UniProt P01900). Particulars: cited from earlier work.
For another data set, the target named is T1, H-2L^d/TAPBPR complex (Mus musculus, UniProt P01897).
T1 construct: Plasmid DNA encoding the luminal domain of class I MHC (MHC-I) heavy chains H-2D^d, HLA-A*02:01, H-2L^d; made in house; Drosophila S2 for TAPBPR
The data set can be described thus: SEC TAPBPR binding assay with LC-MS peptide occupancy. On the set-up: species or system murine. To be noted: 10 mM Gly-Phe dipeptide (GF). Here is the method: Complexes were resolved on an Superdex 200 10/300 increase column (GE healthcare) at a flow rate of 0.5 mL/min in 100 mM NaCl and 20 mM sodium phosphate pH 7.2 at room temperature. MHC-I/TAPBPR complexes eluted at 26.5 min.

The target of data set [2] is HLA-A*24:02/TAPBPR complex (Homo sapiens, UniProt P04439, D101N/D140Y/D185E/E176V/E190D/F33S/G103R/G107R/I119L/I121M/I306V/K335N/L105A/L180Q/L300P/N151K/N90K/Q86E/Q94H/R106L/R138H/R89G/T104I/T345S/V100E/W191G/Y123F). The data set can be described thus: Native gel dissociation of MHC-I/TAPBPR complex by peptide. The class given is biochemical. Particulars: HLA-A*24:02 refolded with gNEF, 10-fold molar excess peptide.

The nature of data set [3]: nanoDSF melting temperatures. The data set is classed as physicochemical. Here is the method:
In a volume of 20 μl, 1 μM peptide deficient HLA-A*02:01/TAPBPR was incubated with 20 μM of various peptides (FIG. 22) in a buffer of 20 mM sodium phosphate pH 7.2, 100 mM NaCl, 0.02% TWEEN-20 for at least one hour. 10 ul of each sample was loaded on the Prometheus NT.48 instrument (NanoTemper™) using the high sensitivity capillaries. NanoDSF™ measurements are performed using a temperature ramp rate of 1° C./min from 25° C. to 95° C. and an LED intensity of 20%. Data was analyzed using the PR Control software (NanoTemper™). Melting temperatures (Tm values) correspond to the inflection points of the first derivative of the 330/350 nm fluorescence ratio. Experiments were performed in duplicates and the shaded areas (FIG. 17b) are representative of the error.
In general terms: In DSF a fluorescence change marks the thermal transition of the protein.

Data set [4] has as its target HLA-A*68:02/TAPBPR complex (Homo sapiens, UniProt P04439, A269V/D140Y/D185E/E176V/E277Q/E87N/F33Y/G231S/I121R/I166T/I218V/L180W/L300P/L318F/N151K/P208A/P217A/Q86R/R138H/R169H/S129P/T345S/V36M). The data set can be described thus: Native gel dissociation of MHC-I/TAPBPR complex by peptide. The data set is classed as biochemical. To be noted: HLA-A*68:02 refolded with gTAX, 10-fold molar excess peptide.

Procedure for H-2D^d/TAPBPR complex: Peptide occupancy of SEC purified MHC-I was determined by HPLC separation on a Higgins PROTO300 C4 column (5 μm, 100 mm×21 mm) followed by electrospray ionisation performed on a Thermo Finnigan LC/MS/MS (LQT) instrument. Peptides were identified by extracting expected m/z ions from the chromatogram and deconvoluting the resulting spectrum in MagTran.

Turning to AGPARAAAL (Sequence is synthesized), the tetramer staining entry in data set [1] was “No staining”.
With GPGRAFVTI [gP18-I10], at H-2D^d/TAPBPR complex, the “fate of bound peptide in the presence of TAPBPR” value (shortened to “fate of bound peptide”) was “dissociated in the presence of TAPBPR”. At H-2D^d, the “increase in the peptide off-rate relative to full-length P18-I10 peptide” value was 100 fold.
Take PNVNIHNF: the “fate of bound peptide” value on H-2L^d/TAPBPR complex was “remained bound”.
For QLSPFPFDL [QL9], the “fate of bound peptide” value at H-2L^d/TAPBPR complex is reported as “empty H-2L^d/TAPBPR complexes were obtained”.
On to “QYNPIRTTF (Sequence is synthesized) [PHOX2B]”, for which, in data set [2], the “effect of peptide on MHC-I/TAPBPR complex” value is “complex dissociation”.
Same read-out and setting: the same measure for “RYPLTFGWCF (Sequence is synthesized) [Nef134-10]”: “complex dissociation”.
Regarding “TAPBPR: chaperone protein homologue of Tapasin, luminal domain expressed in Drosophila S2 cells”, in data set [3], the “Tm (nanoDSF inflection point)” value amounted to 52.5 °C.
Take “YPNVNIHNF (Sequence is synthesized) [p29, irrelevant, nonspecific peptide used as negative control]”: the “effect of peptide on MHC-I/TAPBPR complex” value in data set [2] and in data set [4] was “remain bound” throughout.
